We go through 53 molecules from ChEMBL document CHEMBL1121521, “Inhibitors of Bacillus subtilis DNA polymerase III. 6-Anilinouracils and 6-(alkylamino)uracils” (J Med Chem, 1980).

The target of assay [1] is DNA polymerase III PolC-type (Bacillus subtilis (strain 168)) (UniProt P13267). The assay is described as follows: Degree of resistance is the ratio between inhibition of Bacillus subtilis DNA Polymerase III azp-12 and WT.
Assay [2] concerns the target T1, DNA polymerase III PolC-type (Bacillus subtilis (strain 168), UniProt P13267). The assay is described as follows: Inhibition against Bacillus subtilis DNA polymerase III (wild type).
Target sequence in this assay (P13267 whole entry): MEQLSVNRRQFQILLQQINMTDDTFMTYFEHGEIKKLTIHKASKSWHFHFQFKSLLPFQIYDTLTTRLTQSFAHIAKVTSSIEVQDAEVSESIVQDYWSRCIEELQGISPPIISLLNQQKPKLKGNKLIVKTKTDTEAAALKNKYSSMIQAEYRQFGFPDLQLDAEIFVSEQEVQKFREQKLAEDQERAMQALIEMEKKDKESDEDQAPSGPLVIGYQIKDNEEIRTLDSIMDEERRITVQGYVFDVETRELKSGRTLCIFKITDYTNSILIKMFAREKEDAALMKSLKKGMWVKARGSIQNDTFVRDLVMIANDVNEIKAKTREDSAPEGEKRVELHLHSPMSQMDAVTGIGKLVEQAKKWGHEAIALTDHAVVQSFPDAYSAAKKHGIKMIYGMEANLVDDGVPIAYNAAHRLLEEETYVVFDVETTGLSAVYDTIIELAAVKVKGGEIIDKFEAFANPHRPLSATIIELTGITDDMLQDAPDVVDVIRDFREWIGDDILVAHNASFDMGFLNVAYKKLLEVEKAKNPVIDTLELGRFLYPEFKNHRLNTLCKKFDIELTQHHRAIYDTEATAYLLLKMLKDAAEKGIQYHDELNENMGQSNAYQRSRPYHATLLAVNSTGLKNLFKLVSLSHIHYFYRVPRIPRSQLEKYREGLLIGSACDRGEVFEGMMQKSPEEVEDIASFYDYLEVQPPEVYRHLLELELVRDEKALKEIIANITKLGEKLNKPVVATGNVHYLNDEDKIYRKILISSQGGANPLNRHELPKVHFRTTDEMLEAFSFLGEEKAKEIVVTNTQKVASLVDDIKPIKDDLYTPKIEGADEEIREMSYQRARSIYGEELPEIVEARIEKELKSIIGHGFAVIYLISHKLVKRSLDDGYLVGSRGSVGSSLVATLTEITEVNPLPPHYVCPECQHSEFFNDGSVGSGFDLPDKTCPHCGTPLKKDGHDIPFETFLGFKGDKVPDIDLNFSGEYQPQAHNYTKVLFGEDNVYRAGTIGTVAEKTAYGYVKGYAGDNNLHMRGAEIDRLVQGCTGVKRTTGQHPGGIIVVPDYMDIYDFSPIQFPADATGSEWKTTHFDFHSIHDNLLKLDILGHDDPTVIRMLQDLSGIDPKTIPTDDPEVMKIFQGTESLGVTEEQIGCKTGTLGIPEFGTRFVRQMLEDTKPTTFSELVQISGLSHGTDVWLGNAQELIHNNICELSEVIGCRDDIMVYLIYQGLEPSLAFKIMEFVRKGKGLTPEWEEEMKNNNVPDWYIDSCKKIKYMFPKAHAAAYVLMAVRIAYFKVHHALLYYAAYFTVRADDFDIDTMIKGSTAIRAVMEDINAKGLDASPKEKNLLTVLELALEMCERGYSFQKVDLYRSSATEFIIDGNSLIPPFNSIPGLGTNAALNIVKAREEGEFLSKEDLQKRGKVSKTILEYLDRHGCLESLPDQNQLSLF
The target of assay [3] is T1, DNA polymerase III PolC-type. The assay is described as follows: Inhibition of Bacillus subtilis DNA polymerase III (wild type); NA = inactive (<10% inhibition at 1000 uM).
Target sequence in this assay (P13267 whole entry): as above
For assay [4] the target is unchanged. The assay is described as follows: In vitro inhibition of Bacillus subtilis DNA Polymerase III/azp-12(mutant).
Target sequence in this assay (P13267 whole entry, looked up): as the sequence (P13267 whole entry) above
The target is the same in assay [5]. The assay is described as follows: Inhibition of Bacillus subtilis […](wild type); NA = inactive (<10% inhibition at 1000 uM).
Target sequence in this assay (P13267 whole entry): as above
Assay [6] has the same target. The assay is described as follows: Inhibition against Bacillus subtilis DNA Polymerase III/azp-12(mutant).
Target sequence in this assay (P13267 whole entry, looked up): as the sequence (P13267 whole entry) above
Assay [7] shares this target. The assay is described as follows: Inhibition of Bacillus subtilis DNA polymerase III (wild type).
Target sequence in this assay (P13267 whole entry): as above
The target is the same in assay [8]. The assay is described as follows: Inhibition against Bacillus subtilis DNA Polymerase III/azp-12(mutant);NA = inactive (<10% inhibition at 1000 uM).
Target sequence in this assay (P13267 whole entry, looked up): as the sequence (P13267 whole entry) above

Sequence of DNA polymerase III PolC-type (Bacillus subtilis (strain 168)) (P13267 whole entry): as above

Take `Oc1ccc(Nc2cc(O)nc(O)n2)cc1`: the Degree of resistance in assay [1] stood at 2.2.
For the molecule `CC(C)c1ccc(Nc2cc(O)nc(O)n2)cc1`, the Degree of resistance in assay [1] is 0.065.
`Cc1ccc(Nc2cc(=O)[nH]c(=O)[nH]2)cc1I` gave a Ki in assay [2] of 0.38 µM.
Still for that read-out and setting: the figure for `Cc1ccc(Nc2cc(O)nc(O)n2)cc1CCl` is 0.26 µM.
On to `Cc1ccccc1Nc1cc(O)nc(O)n1`, for which the Ki result in assay [3] is “Not Active”.
As to `Oc1cc(Nc2cccc(Br)c2)nc(O)n1`, the results for the Ki in assay [4] and in assay [2] were 21.9 µM and 10.3 µM, respectively. Further, the Degree of resistance in assay [1] was determined as 2.1.
Consider `Cc1ccc(Nc2cc(O)nc(O)n2)cc1`, for which, in assay [1], the Degree of resistance is 3.9.
In the case of `CCCCCCCCCCNc1cc(O)nc(O)n1`, the Ki entry in assay [5] is listed as “Not Active”.
On to `O=c1cc(Nc2ccc(C(F)(F)F)cc2)[nH]c(=O)[nH]1`, for which the affinity in assay [2], expressed as Ki, was 101 µM.
Regarding `Cc1cc(Nc2cc(=O)[nH]c(=O)[nH]2)ccc1N`, the Ki worked out at 158 µM in assay [6] and 19 µM in assay [2].
`O=c1cc(NCCCCCO)[nH]c(=O)[nH]1`: in assay [2], affinity was put at a Ki of 13500 µM.
As for `Cc1ccc(Nc2cc(=O)[nH]c(=O)[nH]2)cc1CO`, in assay [2], the Ki turned out to be 78.5 µM. Against the preceding molecule, the Ki is about 170-fold lower.
For `CCc1ccc(Nc2cc(O)nc(O)n2)cc1`, the Degree of resistance in assay [1] came out at 0.3.
On to `Oc1cc(Nc2cccc(Cl)c2)nc(O)n1`, for which the figures for the Ki in assay [4] and in assay [2] were 41.7 µM and 25 µM, respectively. For the same molecule, the Degree of resistance in assay [1] was 1.7.
As for `CCCc1ccc(Nc2cc(=O)[nH]c(=O)[nH]2)cc1`, the Ki was determined as 54 µM in assay [4] and 452 µM in assay [2].
Molecule `CCCCCNc1cc(=O)[nH]c(=O)[nH]1` came in with an inhibition constant (Ki) in assay [7] of 335 µM.
For the molecule `OCc1cccc(Nc2cc(O)nc(O)n2)c1`, the Degree of resistance in assay [1] stood at 12.4.
Consider `CCNc1cc(O)nc(O)n1`, for which, in assay [5], the Ki entry is listed as “Not Active”.
As to `CCc1ccccc1Nc1cc(O)nc(O)n1`, the Ki result in assay [5] is listed as “Not Active”.
Turning to `Cc1cc(C)c(Nc2cc(O)nc(O)n2)c(C)c1`, in assay [5], the Ki result is “Not Active”.
For the molecule `Nc1ccc(Nc2cc(=O)[nH]c(=O)[nH]2)cc1`, the Ki was found to be 3900 µM in assay [6] and 640 µM in assay [2].
The molecule `O=c1cc(Nc2cccc(CCl)c2)[nH]c(=O)[nH]1` registered a Ki in assay [2] of 7.6 µM.
`CC(=O)Nc1ccc(Nc2cc(=O)[nH]c(=O)[nH]2)cc1C` showed a Ki in assay [2] of 464 µM.
As to `Oc1cc(Nc2cccc(I)c2)nc(O)n1`, the Degree of resistance in assay [1] was determined as 4.3.
In turn, `Oc1cc(Nc2ccc3c(c2)CCC3)nc(O)n1` registered a Ki in assay [2] of 0.42 µM.
As for `C=CCNc1cc(O)nc(O)n1`, affinity in assay [7] was put at a Ki of 22400 µM.
Turning to `CC(C)CCNc1cc(=O)[nH]c(=O)[nH]1`, in assay [2], the Ki worked out at 2400 µM. In other words, the millimolar range.
In assay [2], `Cc1ccc(Nc2cc(O)nc(O)n2)cc1Cl` registered a Ki of 0.63 µM.
For the molecule `O=c1cc(Nc2cccc(CO)c2)[nH]c(=O)[nH]1`, the Ki amounted to 5130 µM in assay [4] and 413 µM in assay [2].
As for `COc1ccc(Nc2cc(O)nc(O)n2)cc1`, the Ki in assay [4] and in assay [2] was 120 µM throughout. In assay [1], the Degree of resistance was found to be 1.
For the molecule `Cc1cccc(Nc2cc(O)nc(O)n2)c1`, the Degree of resistance in assay [1] amounted to 4.2.
Regarding `CC(=O)Nc1cc(Nc2cc(O)nc(O)n2)ccc1C`, in assay [2], the Ki is 460 µM.
Same read-out and setting: under `Cc1ccc(C)c(Nc2cc(O)nc(O)n2)c1` stands 1360 µM.
For `Oc1cccc(Nc2cc(O)nc(O)n2)c1`, the results for the Ki entry in assay [8] and in assay [2] were “Not Active” and 2630 µM, respectively.
In turn, `O=c1cc(Nc2cccc3ccccc23)[nH]c(=O)[nH]1` showed a Ki in assay [2] of 82.6 µM.
With `Cc1cccc(Nc2cc(=O)[nH]c(=O)[nH]2)c1C`, in assay [2], the Ki is 223 µM.
Consider `CCc1cccc(Nc2cc(O)nc(O)n2)c1`, for which the Degree of resistance in assay [1] was determined as 6.4.
In the case of `CCCc1ccc(Nc2cc(O)nc(O)n2)cc1`, in assay [1], the Degree of resistance was 0.12.
For the molecule `Cc1ccc(Nc2cc(O)nc(O)n2)c(C)c1`, in assay [2], the Ki amounted to 1990 µM.
In the case of `O=c1cc(Nc2ccc(Cl)cc2)[nH]c(=O)[nH]1`, in assay [1], the Degree of resistance was determined as 0.56.
Take `Cc1cccc(Nc2cc(=O)[nH]c(=O)[nH]2)c1`: the Ki in assay [4] was determined as 178 µM; in assay [2], 42.8 µM.
For `Cc1cc(C)cc(Nc2cc(=O)[nH]c(=O)[nH]2)c1`, in assay [2], the Ki stood at 124 µM.
`Oc1cc(Nc2ccc(Cl)c(Cl)c2)nc(O)n1`: in assay [2], the inhibitory constant (Ki) turned out to be 0.93 µM. This Ki is about 130-fold lower than that of the molecule before.
`Cc1cc(Nc2cc(O)nc(O)n2)ccc1Br`: the Degree of resistance in assay [1] is 0.85.
As for `CCCCc1ccc(Nc2cc(O)nc(O)n2)cc1`, in assay [1], the Degree of resistance was 0.4.
Regarding `Cc1ccc(Nc2cc(O)nc(O)n2)cc1C`, the values for the Ki in assay [4] and in assay [2] were 3.5 µM and 0.92 µM, respectively. The Degree of resistance in assay [1] came out at 3.9.
Consider `Cc1ccc(Nc2cc(=O)[nH]c(=O)[nH]2)cc1N`, for which the values for the Ki in assay [6] and in assay [2] were 298 µM and 122 µM, respectively.
In assay [7], `CCCCNc1cc(O)nc(O)n1` yielded a Ki of 5370 µM.
Turning to `CCCNc1cc(O)nc(O)n1`, the Ki entry in assay [3] is recorded as “Not Active”.
Turning to `Oc1cc(Nc2ccc(Br)cc2)nc(O)n1`, the Degree of resistance in assay [1] is 0.13.
In the case of `OCc1ccc(Nc2cc(O)nc(O)n2)cc1`, in assay [1], the Degree of resistance was determined as 0.6.
In turn, `CCCCCCNc1cc(=O)[nH]c(=O)[nH]1` had a Ki in assay [2] of 370 µM.
On to `O=c1cc(Nc2ccc3ccccc3c2)[nH]c(=O)[nH]1`, for which affinity in assay [2] was put at a Ki of 6.8 µM.
